The target in assay [1] is T1, Neuropeptides B/W receptor type 1 (Homo sapiens, UniProt P48145).
T1 sequence (P48145 whole entry): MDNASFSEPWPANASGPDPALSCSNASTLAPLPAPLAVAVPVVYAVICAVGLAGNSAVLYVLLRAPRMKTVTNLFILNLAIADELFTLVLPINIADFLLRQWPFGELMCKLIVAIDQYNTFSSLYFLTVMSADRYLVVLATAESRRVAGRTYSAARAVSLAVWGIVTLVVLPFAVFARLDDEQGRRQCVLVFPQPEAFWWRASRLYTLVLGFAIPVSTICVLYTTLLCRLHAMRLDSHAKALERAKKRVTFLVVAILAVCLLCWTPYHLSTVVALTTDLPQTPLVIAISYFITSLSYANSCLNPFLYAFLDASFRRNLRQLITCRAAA
As to the kind of experiment: GPR7 antagonist potency, late-stage follow-up, cell-based, fluorescence, dose response, set 6 (AID 588583). It is filed as functional.

Assay [2] addresses Melanin-concentrating hormone receptor 1 (Homo sapiens, UniProt Q99705). Description: Late-stage fluorescence-based counterscreen for antagonists of the G-protein coupled receptor 7 (GPR7): cell-based dose response assay to identify antagonists of the melanin-concentrating hormone receptor 1 (MCHR1) Set 6. It is filed as functional.

Activity calls are given as the source filed them. No stated cut-off is given here; in the data, active = IC50 of 10 µM or less and inactive = more.

Chain of Melanin-concentrating hormone receptor 1 (Q99705 whole entry): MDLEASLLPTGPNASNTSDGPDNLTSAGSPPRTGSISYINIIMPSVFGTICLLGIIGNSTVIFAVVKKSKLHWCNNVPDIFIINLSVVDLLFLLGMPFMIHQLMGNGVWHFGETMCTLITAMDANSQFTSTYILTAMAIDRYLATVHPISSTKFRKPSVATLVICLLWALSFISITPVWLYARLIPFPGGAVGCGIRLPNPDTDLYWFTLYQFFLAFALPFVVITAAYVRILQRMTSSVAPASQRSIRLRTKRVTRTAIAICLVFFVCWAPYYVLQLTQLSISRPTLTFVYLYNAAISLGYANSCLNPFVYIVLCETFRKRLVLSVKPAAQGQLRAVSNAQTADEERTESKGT

With `COc1ccc(-c2c(Br)cnn(Cc3cccc4ccccc34)c2=O)cc1`, the IC50 in assay [1] and in assay [2] was 974 nM (active) each time.

These data come from ChEMBL document CHEMBL1201862, “PubChem BioAssay data set” (2004).
